From patent publication US9394297B2, “Amides as pim inhibitors” (AMGEN INC., priority 2012, dated 2016)

How the values were obtained:
Pim-1 = Pim-1 (Homo sapiens (Human), UniProt P11309); test: Pim-Mn enzyme assay (HTRF, 384-well), Pim-1; assay type: biochemical; settings: Pim-1 enzyme 5 pM, ATP 1.5 μM, BAD (S112) 0.5 μM, HTRF, 22-point curve; read-out: Pim-1-Mn IC50 IP
Pim-2 = Pim-2 (Homo sapiens (Human), UniProt Q9P1W9); test: Pim-Mn enzyme assay (HTRF, 384-well), Pim-2; assay type: biochemical; settings: Pim-2 enzyme 0.5 pM, ATP 1.5 μM, BAD (S112) 0.5 μM, HTRF, 22-point curve; read-out: Pim-2-Mn IC50 IP
Sequence of Pim-2 (Q9P1W9 whole entry): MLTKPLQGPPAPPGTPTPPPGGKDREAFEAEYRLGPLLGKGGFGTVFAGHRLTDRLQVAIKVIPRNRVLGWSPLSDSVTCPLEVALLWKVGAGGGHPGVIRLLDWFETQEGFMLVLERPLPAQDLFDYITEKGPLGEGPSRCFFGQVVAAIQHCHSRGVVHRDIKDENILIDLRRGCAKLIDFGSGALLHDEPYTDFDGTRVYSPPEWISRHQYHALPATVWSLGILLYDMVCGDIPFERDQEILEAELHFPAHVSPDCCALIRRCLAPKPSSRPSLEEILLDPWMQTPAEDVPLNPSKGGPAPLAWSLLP

Sequence of Pim-1 (P11309 whole entry): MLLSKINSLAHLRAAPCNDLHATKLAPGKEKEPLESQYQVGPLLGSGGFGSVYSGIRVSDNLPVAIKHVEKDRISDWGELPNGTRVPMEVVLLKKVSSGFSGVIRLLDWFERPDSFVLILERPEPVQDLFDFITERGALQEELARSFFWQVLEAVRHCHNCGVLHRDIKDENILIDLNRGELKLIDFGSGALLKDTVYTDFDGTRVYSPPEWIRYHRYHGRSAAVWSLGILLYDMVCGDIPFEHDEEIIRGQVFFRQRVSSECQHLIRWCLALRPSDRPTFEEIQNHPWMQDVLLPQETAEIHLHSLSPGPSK

| SMILES | IC50 (Pim-1) [nM] | IC50 (Pim-2) [nM] |
| --- | --- | --- |
| CC#CCC1CNC(=O)c2cc(-c3cccc4nc(C)c(F)nc34)[nH]c21 (racemic) [Example 280, rac-7-(2-butyn-1-yl)-2-(3-fluoro-2-methyl-5-quinoxalinyl)-1,5,6,7-tetrahydro-4H-pyrrolo[3,2-c]pyridin-4-one] | 838 | 706 |
| Cc1nc2cccc(-c3cc4c(=O)[nH]cnc4[nH]3)c2nc1N [Example 262, 6-(3-amino-2-methylquinoxalin-5-yl)-3H-pyrrolo[2,3-d]pyrimidin-4(7H)-one] | 18.9 | 21 |
| Cc1nc2cccc(-c3cc4c([nH]3)CCNC4=O)c2nc1N[C@H]1C[C@@H](N(CCF)CCF)C1 [Example 476, 2-(3-(((1 s,3s)-3-(bis(2-fluoroethyl)amino)cyclobutyl)amino)-2-methylquinoxalin-5-yl)-6,7-dihydro-1H-pyrrolo[3,2-c]pyridin-4(5H)-one] | 2 | 12 |
| Cc1nc2cccc(-c3cc4c([nH]3)CCNC4=O)c2nc1NC1CCN(C(=O)OC(C)(C)C)CC1 [Example 47, tert-butyl 4-((3-methyl-8-(4-oxo-4,5,6,7-tetrahydro-1H-pyrrolo[3,2-c]pyridin-2-yl)-2-quinoxalinyl)amino)-1-piperidinecarboxylate] | 13.2 | 34.9 |
| Cc1nc2cccc(-c3cc4c([nH]3)CCNC4=O)c2nc1N[C@H]1C[C@@H](NCCF)C1 [Example 477, 2-(3-(((1s,3s)-3-((2-fluoroethyl)amino)cyclobutyl)amino)-2-methylquinoxalin-5-yl)-6,7-dihydro-1H-pyrrolo[3,2-c]pyridin-4(5H)-one] | 1 | 1 |
| Cc1nc2cccc(-c3cc4c([nH]3)CCNC4=O)c2nc1NC(C)C(F)(F)F (stereo in doubt) [Example 256, (R)-2-(2-methyl-3-((1,1,1-trifluoropropan-2-yl)amino)quinoxalin-5-yl)-6,7-dihydro-1H-pyrrolo[3,2-c]pyridin-4(5H)-one] | 4.97 | 4.32 |
| Cc1nc2cccc(-c3cc4c([nH]3)CCNC4=O)c2nc1N[C@H]1CCN(C(=O)OC(C)(C)C)C1 [Example 49, (S)-tert-butyl-3-((3-methyl-8-(4-oxo-4,5,6,7-tetrahydro-1H-pyrrolo[3,2-c]pyridin-2-yl)quinoxalin-2-yl)amino)pyrrolidine-1-carboxylate] | 47.2 | 144 |
| Cc1nc2cccc(-c3cc4c([nH]3)C(Cc3ccc(Cl)cc3)CNC4=O)c2nc1N (racemic) [Example 273, rac-2-(3-amino-2-methyl-5-quinoxalinyl)-7-(4-chlorobenzyl)-1,5,6,7-tetrahydro-4H-pyrrolo[3,2-c]pyridin-4-one] | 39 | 19.1 |
| Cc1nc2cccc(-c3cc4c([nH]3)CCNC4=O)c2nc1N[C@@H]1CCNC1 [Example 61, 2-(2-methyl-3-((3R)-3-pyrrolidinylamino)-5-quinoxalinyl)-1,5,6,7-tetrahydro-4H-pyrrolo[3,2-c]pyridin-4-one] | 6.1 | 26.4 |
| CCCCNc1nc2c(-c3cc4c([nH]3)CCNC4=O)cccc2nc1C [Example 159, 2-(3-(butylamino)-2-methylquinoxalin-5-yl)-6,7-dihydro-1H-pyrrolo[3,2-c]pyridin-4(5H)-one] | 3.1 | 1.7 |
| Cc1nc2cccc(-c3cc4c([nH]3)CCNC4=O)c2nc1N[C@H]1CCCN(C(=O)OC(C)(C)C)C1 [Example 51, tert-butyl (3S)-3-((3-methyl-8-(4-oxo-4,5,6,7-tetrahydro-1H-pyrrolo[3,2-c]pyridin-2-yl)-2-quinoxalinyl)amino)-1-piperidinecarboxylate] | 191 | 220 |
| Cc1nc2cccc(-c3cc4c(=O)[nH]cnc4[nH]3)c2nc1F [Example 264, 6-(3-fluoro-2-methylquinoxalin-5-yl)-3H-pyrrolo[2,3-d]pyrimidin-4(7H)-one] | 1120 | 1690 |
| Cc1nc2cccc(-c3cc4c([nH]3)[C@@H](C)NC4=O)c2nc1N[C@H]1CCC[C@@H](N)C1 [Example 483, (6R)-2-(3-(((1S,3R)-3-aminocyclohexyl)amino)-2-methyl-5-quinoxalinyl)-6-methyl-5,6-dihydropyrrolo[3,4-b]pyrrol-4(1H)-one] | 0.0598 | 0.0358 |
| CC(C)(C)Nc1nc2c(-c3cc4c([nH]3)CCNC4=O)cccc2nc1C(F)(F)F [Example 224, 2-(3-(tert-butylamino)-2-(trifluoromethyl)quinoxalin-5-yl)-6,7-dihydro-1H-pyrrolo[3,2-c]pyridin-4(5H)-one] | 4.2 | 2.8 |
| Cc1nc2cccc(-c3cc4c([nH]3)C(C)CNC4=O)c2nc1NC1CC1 (single isomer, unassigned) [Example 161, 2-(3-(cyclopropylamino)-2-methylquinoxalin-5-yl)-7-methyl-6,7-dihydro-1H-pyrrolo[3,2-c]pyridin-4(5H)-one] | 0.8 | 0.7 |
| CSc1nc2c(-c3cc4c([nH]3)CCNC4=O)cccc2c(=O)n1C [Example 265, 3-methyl-2-(methylthio)-8-(4-oxo-4,5,6,7-tetrahydro-1H-pyrrolo[3,2-c]pyridin-2-yl)quinazolin-4(3H)-one] | 25.2 | 11.9 |
| Cc1nc2cccc(-c3cc4c([nH]3)CCNC4=O)c2nc1NC1CN(C(=O)OC(C)(C)C)C1 [Example 149, tert-butyl 3-((3-methyl-8-(4-oxo-4,5,6,7-tetrahydro-1H-pyrrolo[3,2-c]pyridin-2-yl)quinoxalin-2-yl)amino)azetidine-1-carboxylate] | 20 | 33 |
| Cc1nc2cccc(-c3cc4c([nH]3)CCNC4=O)c2nc1NC(C)(C)C(=O)O [Example 60, 2-methyl-N-(3-methyl-8-(4-oxo-4,5,6,7-tetrahydro-1H-pyrrolo[3,2-c]pyridin-2-yl)-2-quinoxalinyl)alanine] | 300 | 191 |

The next lines start with the values.

| IC50 (Pim-1) [nM] | IC50 (Pim-2) [nM] | SMILES |
| --- | --- | --- |
| 0.029 | 0.0741 | CCn1c(NC(C)(C)C)nc2c(-c3cc4c([nH]3)[C@@H](C)NC4=O)c(F)ccc2c1=O [Example 512, (R)-2-(tert-Butylamino)-3-ethyl-7-fluoro-8-(6-methyl-4-oxo-1,4,5,6-tetrahydropyrrolo[3,4-b]pyrrol-2-yl)quinazolin-4(3H)-one] |
| 0.046 | 0.06 | C[C@H]1NC(=O)c2cc(-c3c(F)ccc4c(=O)n(C5CC5)c(NC5(C)CC5)nc34)[nH]c21 [Example 495, (R)-3-cyclopropyl-7-fluoro-8-(6-methyl-4-oxo-1,4,5,6-tetrahydropyrrolo[3,4-b]pyrrol-2-yl)-2-((1-methylcyclopropyl)amino)quinazolin-4(3H)-one] |
| 0.16 | 0.19 | C[C@H]1NC(=O)c2cc(-c3cccc4c(=O)n(CC(F)(F)F)c(NC(C)(C)C)nc34)[nH]c21 [Example 501, 2-(tert-butylamino)-8-((6R)-6-methyl-4-oxo-1,4,5,6-tetrahydropyrrolo[3,4-b]pyrrol-2-yl)-3-(2,2,2-trifluoroethyl)-4(3H)-quinazolinone] |
| 4 | 2 | Cc1nc2cccc(-c3cc4c([nH]3)[C@@H](C)NC4=O)c2nc1N[C@H]1CCC[C@@H](NS(C)(=O)=O)C1 [Example 489, N-((1R,3S)-3-((3-methyl-8-((6R)-6-methyl-4-oxo-1,4,5,6-tetrahydropyrrolo[3,4-b]pyrrol-2-yl)-2-quinoxalinyl)amino)cyclohexyl)methanesulfonamide] |
| 0.287 | 0.671 | C[C@H]1NC(=O)c2cc(-c3cccc4c(=O)n(C5CCOCC5)c(NC(C)(C)C)nc34)[nH]c21 [Example 514, (R)-2-(tert-butylamino)-8-(6-methyl-4-oxo-1,4,5,6-tetrahydropyrrolo[3,4-b]pyrrol-2-yl)-3-(tetrahydro-2H-pyran-4-yl)quinazolin-4(3H)-one] |
| 1 | 0.7 | CC[C@H]1NC(=O)c2cc(-c3cccc4c(=O)n(C5CC5)c(NC(C)(C)C)nc34)[nH]c21 [Example 511, (R)-2-(tert-butylamino)-3-cyclopropyl-8-(6-ethyl-4-oxo-1,4,5,6-tetrahydropyrrolo[3,4-b]pyrrol-2-yl)quinazolin-4(3H)-one] |
| 3.98 | 7.66 | C[C@H]1NC(=O)c2cc(-c3cccc4c(N)nc(NC(C)(C)C)nc34)[nH]c21 [Example 484, (6R)-2-(4-amino-2-(tert-butylamino)-8-quinazolinyl)-6-methyl-5,6-dihydropyrrolo[3,4-b]pyrrol-4(1H)-one] |
| 4.1 | 8.2 | Cc1nc2cccc(-c3cc4c([nH]3)CCNC4=O)c2nc1N[C@H]1C[C@H](NC(=O)OC(C)(C)C)C1 [Example 436, tert-butyl ((1r,3s)-3-((3-methyl-8-(4-oxo-4,5,6,7-tetrahydro-1H-pyrrolo[3,2-c]pyridin-2-yl)quinoxalin-2-yl)amino)cyclobutyl)carbamate] |
| 0.04 | 0.02 | Cn1c(NC(C)(C)C)nc2c(-c3cc4c([nH]3)[C@@H](CCN)NC4=O)cccc2c1=O [Example 504, (R)-8-(6-(2-aminoethyl)-4-oxo-1,4,5,6-tetrahydropyrrolo[3,4-b]pyrrol-2-yl)-2-(tert-butylamino)-3-methylquinazolin-4(3H)-one] |
| 3.1 | 12 | CC(C)(C)Nc1nc2c(-c3cc4c([nH]3)CCNC4=O)cccc2nc1-c1ccccc1 [Example 438, 2-(3-(tert-Butylamino)-2-phenylquinoxalin-5-yl)-6,7-dihydro-1H-pyrrolo[3,2-c]pyridin-4(5H)-one] |
| 2.5 | 1.4 | Cc1nc2cccc(-c3cc4c([nH]3)CCNC4=O)c2nc1N[C@H]1C[C@@H](O)C1 [Example 439, 2-(3-((cis-3-Hydroxycyclobutyl)amino)-2-methylquinoxalin-5-yl)-6,7-dihydro-1H-pyrrolo[3,2-c]pyridin-4(5H)-one] |
